Assay results taken from US5874597A, “Certain aminosterol compounds and pharmaceutical compositions including these compounds” (priority 1995, dated 1999).
Entries after “also recorded” stand apart in the source; their conditions may differ. Each block holds one compound with its values, some of them ahead of it.

Tests used:
[1] = system: Human ovarian carcinoma SKOV3; experiment: growth inhibition of SKOV3; type: cell-based
Excerpt: (§1) As set forth in Table 7 below, all malignant tumors evaluated in tissue culture, endothelial cells and vascular smooth muscle cells were sensitive to inhibition. Thus, compound 1436 has application in the control of growth factor dependent proliferation of many types of tissue.

[2] = system: Xenopus tadpole (stage 59-60); experiment: Xenopus tadpole assay; type: in vivo, Xenopus laevis; details: 10 μg/ml; about 1 hour
[3] = fasting blood glucose in mice; type: in vivo, mouse; details: intravenous; vs. Group 1
Protocol: To study the effect of steroid administrator or the NHE responsible for secretion of insulin, several of the aminosterols from shark liver were administered to fasting mice. Male CD-1 mice were assigned to one of four treatment groups. Whole blood glucose was tested using glucometer (Lifescan Glucometer II and One Touch test strips). Statistical analysis was via one-way analysis of variance (ANOVA) followed by subsequent Bonferonni's t-test.

B16 melanoma = experiment: suppression of B16 melanoma growth in C57B mice; type: in vivo, mouse
Protocol: The growth of B16 melanoma in C57B mice is dependent upon neovascularization.
Using the growth of B16 melanoma cells in C57B mice, a recognized model for the evaluation of inhibitors of angiogenesis on the growth of cancers, the effects of subcutaneous, intraperitoneal and oral administration of squalamine were evaluated.
Based on the idea that tumor growth involves both the clonal expansion of a malignant cell along with the development of a supporting vascular supply, a combination of compound 1436 with squalamine was tested to determine whether it would achieve a synergistic effect on solid tumor growth. This concept was evaluated in the B16 melanoma model.
Animals were implanted with B16 melanoma followed by treatment with compound 1436 or 1256 administered in a combined schedule or separately. […] Thus, a combination of these two compounds achieves a therapeutic benefit in tumors dependent on neovascularization that may prevent metastatic spread.

NHE = experiment: direct inhibition of NHE
Excerpt: Moreover, other aminosterols have shown anti-angiogenic activity. Compounds were subjected to a various assays, including the chick embryo capillary regression assay, the tadpole assay, the assay for inhibition of endothelial cord formation, and the assay for direct inhibition of NHE, as described above, to determine their utilities. As evident from the above data, correlation among the results from the chick, tadpole and in vitro inhibition of endothelial cell cord formation assays is excellent.

[4] = system: vitelline capillaries of chick embryo; experiment: chick embryo vitelline capillary regression assay; type: in vivo; details: in vivo
Protocol: Using the chick embryo vitelline capillaries assay, compounds were tested for their ability to induce capillary regression. Each compound was applied in 0.1 ml of 15% Ficol 400 and PBS onto the embryo, and vascular regression was assessed after 60 minutes.
The 3-day chick embryo consists of an embryonic disc from which numerous vessels emerge and return, forming a "figure 8"-shaped structure--the embryo in the center with vascular loops extending outward over both poles. […] Following a lag period of around 15 minutes, the constriction of continuity between capillary and secondary vessels, generally on the "venous" side, was observed. Continued pulsatile blood flow progressed, resulting in a "swelling" of the blind tube, followed by a pinching off of the remaining connection and formation of an enclosed vascular sac resembling a "blood island." This process progressed until only the largest vessels remained intact.

[5] = system: Human coronary artery smooth muscle cells; experiment: proliferation of human coronary artery smooth muscle in vitro; type: cell-based; details: FIG. 15
Excerpt: as §1
Aminosterols of the invention may also have utility in inhibiting the growth factor mediated proliferation of smooth muscle within the artery. Following coronary angioplasty, reocclusion commonly occurs, secondary to reparative proliferation of the vascular smooth muscle within the wall of the surgically manipulated blood vessel. This process generally takes place over the course of 7-10 days. To evaluate whether an agent could prevent the growth factor mediated proliferation of smooth muscle within the artery, compound 1436 was evaluated in vitro for its effect on the proliferation of human coronary artery smooth muscle. Results for compound 1436 are shown in FIG. 13, and those for squalamine are shown in FIG. 14, with FIG. 15 being a composite logarithmic plot.

[6] = growth and weight gain of C57B mice; type: in vivo, mouse; details: 10 mg/kg QTD i.p.; 6 doses, about 1 month
Protocol: Animals were dosed QTD (i.p.) starting on Day 1. […] Animals receiving 5 mg/kg QTD experienced about a 50% reduction in growth, compared to untreated controls, while animals receiving 1 mg/kg QTD were affected by about 10%. […] They appeared very much like hypophysectamized animals might appear.

[7] = system: L1210 lymphoblastic leukemia; experiment: mouse L1210 leukemia model, survival; type: in vivo; details: highest dose, 10 mg/kg every 3 days i.p.
[8] = arterial resistance in the rat after i.v. administration; type: in vivo
Protocol: A 200-g rat was catheterized in the right carotid artery, and the compound was introduced over a ten-second period to a total dosage of 5 mg/kg. Within 30 seconds, the mean arterial pressure had fallen from about 100 mm Hg to about 70 mm Hg, with a marked reduction in pulse pressure from about 40 mm to about 10 mm. […] If cardiac output was basically unaffected, reduction in blood pressure would have resulted principally from a reduction in system resistance.
At that time, 40 μg of noradrenaline was introduced.

rabbit NHE3 = rabbit NHE3 (Oryctolagus cuniculus, UniProt P26432); experiment: inhibition of rabbit NHE3 in transfected PS120 fibroblasts (internal pH, BCECF-AM)
LLC = LLC MTT; type: cell-based; details: Lewis lung carcinoma; Table II; read-out: LLC MTT, Minimum Effective Concentration
[9] = system: human foreskin fibroblasts; experiment: growth inhibition of human fibroblasts; details: 10 μg/ml
[10] = system: human microvascular cells; experiment: inhibition of endothelial cell cord formation in vitro; type: cell-based; details: at cord-inhibiting concentrations
Excerpt: Endothelial cells have the capacity in vitro to form tubular aggregates resembling capillaries in various early stages of formation. This conversion occurs under relatively specific conditions, in which essential growth factors along with an effective substratum are provided. It has been shown that both the interaction of growth factors with the endothelial cell and its attachment to a substratum activate the NHE. The activation of this exchanger is believed to be required for subsequent morphologic transformation of the endothelial cell into a multicellular tubular structure.
To assess the effect of compounds on the cord-like structures formed by human microvascular cells when plated in the presence of VEGF (Vascular Endothelial Growth Factor) and basic fibroblast growth factor on a collagen matrix, a standard cord formation assay was used.

[11] = system: human epithelial cell line MCF 10A; experiment: growth inhibition of human epithelial cells; details: 10 μg/ml
[12] = system: human umbilical venous endothelial cells; experiment: LPS/TNF-α-induced neutrophil adherence to human umbilical venous endothelial cells; type: cell-based; details: three different subjects; LPS or TNF-α activated
Excerpt: Methods 109, 1988, 175-184.

[13] = system: chorioallantoic membrane capillaries; experiment: chorioallantoic membrane (CAM) model, inhibition of capillary growth; type: in vivo, chick; details: for Percentage positive, Assay 1 / Percentage positive, Assay 2 / Percentage positive, Mean: 3-Day Embryo
Excerpt: The growing capillaries within the chorioallantoic membrane model (CAM model) have been used as a system in which to evaluate the effect of agents on their potential to inhibit new vessel growth. Neovascularization occurs most aggressively over the first week of embryonic development. Thereafter capillary growth is characterized by principally "elongation" rather than "de novo" formation.
In the standard assay, agents are applied locally to a region of the embryo over which neovascularization will occur. Agents are assessed by their ability to inhibit this process, as evaluated by visual examination about 7 days after application. […] The assay utilized is described in detail in Auerbach et al., Pharm. Ther. 51, 1991, 1-11.

human melanoma 1205Lu = experiment: suppression of human melanoma 1205Lu in RAG-1 mice; type: in vivo; details: 10, 20, 40 mg/kg/d
Excerpt: As apparent from FIG. 5, melanoma 1205Lu develops aggressively in RAG-1 mice after implantation.

[14] = 20 μg, * = some vascular irritation noted
[15] = 40 μg, * = some vascular irritation noted

rabbit NHE3, sequence (P26432 30-832): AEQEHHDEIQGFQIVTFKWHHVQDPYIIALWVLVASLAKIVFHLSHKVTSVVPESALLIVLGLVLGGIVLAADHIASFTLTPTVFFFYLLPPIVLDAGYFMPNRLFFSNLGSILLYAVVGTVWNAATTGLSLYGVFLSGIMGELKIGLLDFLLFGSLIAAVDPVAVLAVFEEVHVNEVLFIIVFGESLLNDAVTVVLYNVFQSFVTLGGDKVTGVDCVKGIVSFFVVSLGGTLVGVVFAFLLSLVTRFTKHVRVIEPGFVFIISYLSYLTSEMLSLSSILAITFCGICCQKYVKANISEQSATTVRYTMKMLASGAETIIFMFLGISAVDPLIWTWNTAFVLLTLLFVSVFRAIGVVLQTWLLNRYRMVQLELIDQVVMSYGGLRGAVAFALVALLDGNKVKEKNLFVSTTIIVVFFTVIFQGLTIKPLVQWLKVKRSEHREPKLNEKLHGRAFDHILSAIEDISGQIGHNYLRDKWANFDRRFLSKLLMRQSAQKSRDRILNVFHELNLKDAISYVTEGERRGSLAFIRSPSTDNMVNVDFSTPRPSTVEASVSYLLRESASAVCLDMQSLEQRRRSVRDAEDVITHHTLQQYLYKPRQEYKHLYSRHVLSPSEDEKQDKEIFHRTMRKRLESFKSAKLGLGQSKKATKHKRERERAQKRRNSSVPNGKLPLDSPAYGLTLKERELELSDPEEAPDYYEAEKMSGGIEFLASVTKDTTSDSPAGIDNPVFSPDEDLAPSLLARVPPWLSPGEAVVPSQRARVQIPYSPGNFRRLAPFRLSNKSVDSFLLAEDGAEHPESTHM

Compound: CC(C)C(CO)(CC[C@@H](C)[C@H]1CC[C@H]2[C@@H]3[C@H](O)C[C@H]4C[C@@H](NCCCNCCCCN)CC[C@]4(C)[C@H]3CC[C@]12C)OS(=O)(=O)O (single isomer, unassigned) [Compound 1437]
anticancer activity against SKOV3 [1]: anticancer activity against the human ovarian carcinoma, SKOV3 | tadpole response [2]: Epithelium covering the embryonic portions of the animal, such as the tail and antennae, began to slough off in sheets; also recorded: the larval skin was observed to shed off in a sheet | fasting blood glucose effect [3]: caused hyperglycemia in mice

Compound: C[C@H](CCC(=O)O)[C@H]1CC[C@H]2[C@@H]3CC[C@H]4C[C@@H](NCCCNCCCCN)CC[C@]4(C)[C@H]3CC[C@]12C [Compound 319]
control of B16 melanoma (B16 melanoma; compound 319 subcutaneous, C57B mice, FIG. 6): almost comparable to squalamine | potency as an NHE inhibitor (NHE): superior to squalamine | effect on vitelline capillaries / chick embryo [4]: especially active | tadpole response [2]: common vascular occlusive effect

reversibility of effect ([8]; 40 μg noradrenaline): readily reversible | inhibition of rabbit NHE3 (rabbit NHE3; 10 μg/ml, acid-preloaded 40 mM NH4Cl): inhibit rabbit NHE3
Compound: CC(C)[C@@H](CC[C@@H](C)[C@H]1CC[C@H]2[C@@H]3[C@H](O)C[C@H]4C[C@@H](NCCCNCCCCNCCCN)CC[C@]4(C)[C@H]3CC[C@]12C)OS(=O)(=O)O [Compound 1436]
suppression of growth of human coronary artery smooth muscle [5]: suppress in vitro the growth of human coronary artery smooth muscle | growth inhibition in mice [6]: growth was almost completely inhibited | prolongation of life [7]: significant prolongation of life | impact on tumor volume (B16 melanoma; compound 1436 10 mg/kg/every 3 days alone): no significant impact on tumor volume | effect on vitelline capillaries / chick embryo [4]: about the same potency as squalamine | persistence of effect ([8]; followed for 30 minutes): without significant change | tadpole response [2]: common vascular occlusive effect; also recorded: Gradual reduction in overall activity; also recorded: Heart beat remained strong, suggesting nervous system depression; also recorded: Melanocytes over head and tail began to swell; also recorded: dramatic disruption of melanocytes over its head, trunk, and tail; also recorded: No effects are observed on epithelial cell integrity, vascular flow, erythrocyte volume, tissue integrity, muscle fiber striation, or GI tract activity | fasting blood glucose effect [3]: caused hyperglycemia in mice

Compound: CC(C)CCC[C@@H](C)[C@H]1CC[C@H]2[C@@H]3CC[C@H]4C[C@@H](NCCCNCCCCNCCCN)CC[C@]4(C)[C@H]3CC[C@]12C [drawing 82]
minimal effective concentration (LLC): 3 µg/mL

Compound: CC(C)[C@@H](CC[C@@H](C)[C@H]1CC[C@H]2[C@@H]3[C@H](O)C[C@H]4C[C@@H](NCCCNCCCCN)CC[C@]4(C)[C@H]3CC[C@]12C)OS(=O)(=O)O [squalamine]
suppression of growth of human coronary artery smooth muscle [5]: suppress in vitro the growth of human coronary artery smooth muscle | growth of fibroblast line [9]: no effect | effect on cell viability or proliferation in cord assay [10]: does not appear to profoundly affect cell viability or proliferation | growth of epithelial line [11]: no effect | impact on tumor volume (B16 melanoma; squalamine 5 mg/kg/day alone): no significant impact on tumor volume | suppression of B16 tumor volume (B16 melanoma; squalamine s.c., i.p. or oral, C57B mice): dose-dependent suppression of tumor volume | body weight and hematologic parameters (B16 melanoma; squalamine-treated mice): no significant depression | effect on vitelline capillaries / chick embryo [4]: disrupt vitelline capillaries in 3- to 5-day chick embryos; also recorded: No hemorrhage was seen; also recorded: absence of hemolysis; also recorded: especially active | tadpole response [2]: blood flow through the capillaries of the tail shut down; also recorded: unaltered blood flow through the fine capillaries of the hands and feet; also recorded: common vascular occlusive effect; also recorded: Vascular occlusion in fine capillaries of tail; also recorded: No effect on vascular flow through hands or feet | inhibition of neutrophil adherence [12]: no inhibition | specificity NHE3 over NHE1 (rabbit NHE3): specificity for NHE3 over NHE1 | inhibition of NHE3 (Km and Vmax) (rabbit NHE3; 5 μg/ml, acid-preloaded 40 mM NH4Cl): inhibited NHE3 with respect to proton concentration at both Km and Vmax levels | resting pH of cells (rabbit NHE3; 5 μg/ml, not acid-preloaded): the resting pH of these cells was also inhibited | Percentage positive, Assay 1 ([13]; 0.65 μg): 28% | Percentage positive, Assay 1 ([13]; 1.25 μg): 18% | Percentage positive, Assay 2 ([13]; 1.25 μg): 18% | Percentage positive, Mean ([13]; 1.25 μg): 18% | Percentage positive, Assay 1 ([13]; 2.5 μg): 35% | Percentage positive, Assay 2 ([13]; 2.5 μg): 18% | Percentage positive, Mean ([13]; 2.5 μg): 27% | Percentage positive, Assay 1 ([13]; 5.0 μg): 91% | Percentage positive, Assay 2 ([13]; 5.0 μg): 57% | Percentage positive, Mean ([13]; 5.0 μg): 74% | Percentage positive, Mean ([13]; 20 μg): 55% | Percentage positive, Assay 1 [13, 14]: 52* % | Percentage positive, Assay 2 [13, 14]: 58* % | Percentage positive, Mean ([13]; 40 μg): 32% | Percentage positive, Assay 1 [13, 15]: 50* % | Percentage positive, Assay 2 [13, 15]: 13* % | positive, Assay 1 (count) ([13]; 13-Day Embryo, 5.0 μg): 0/26 | inhibitory effect on older CAM ([13]; 13-day old chick, ten times 0.65 μg): no inhibitory effect | suppression of growth of melanoma 1205Lu (human melanoma 1205Lu): clear suppression of tumor growth in a dose-dependent fashion; also recorded: reversible
